This note sets out measurements from ChEMBL document CHEMBL2390894, “Quantitative analysis of histone demethylase probes using fluorescence polarization” (J Med Chem, 2013).

Active and inactive are the calls of the source. No cut-off for these calls is given here.

For assay [1], the target named is T1, Lysine-specific demethylase 2A (Homo sapiens, UniProt Q9Y2K7).
T1 sequence (Q9Y2K7 whole entry): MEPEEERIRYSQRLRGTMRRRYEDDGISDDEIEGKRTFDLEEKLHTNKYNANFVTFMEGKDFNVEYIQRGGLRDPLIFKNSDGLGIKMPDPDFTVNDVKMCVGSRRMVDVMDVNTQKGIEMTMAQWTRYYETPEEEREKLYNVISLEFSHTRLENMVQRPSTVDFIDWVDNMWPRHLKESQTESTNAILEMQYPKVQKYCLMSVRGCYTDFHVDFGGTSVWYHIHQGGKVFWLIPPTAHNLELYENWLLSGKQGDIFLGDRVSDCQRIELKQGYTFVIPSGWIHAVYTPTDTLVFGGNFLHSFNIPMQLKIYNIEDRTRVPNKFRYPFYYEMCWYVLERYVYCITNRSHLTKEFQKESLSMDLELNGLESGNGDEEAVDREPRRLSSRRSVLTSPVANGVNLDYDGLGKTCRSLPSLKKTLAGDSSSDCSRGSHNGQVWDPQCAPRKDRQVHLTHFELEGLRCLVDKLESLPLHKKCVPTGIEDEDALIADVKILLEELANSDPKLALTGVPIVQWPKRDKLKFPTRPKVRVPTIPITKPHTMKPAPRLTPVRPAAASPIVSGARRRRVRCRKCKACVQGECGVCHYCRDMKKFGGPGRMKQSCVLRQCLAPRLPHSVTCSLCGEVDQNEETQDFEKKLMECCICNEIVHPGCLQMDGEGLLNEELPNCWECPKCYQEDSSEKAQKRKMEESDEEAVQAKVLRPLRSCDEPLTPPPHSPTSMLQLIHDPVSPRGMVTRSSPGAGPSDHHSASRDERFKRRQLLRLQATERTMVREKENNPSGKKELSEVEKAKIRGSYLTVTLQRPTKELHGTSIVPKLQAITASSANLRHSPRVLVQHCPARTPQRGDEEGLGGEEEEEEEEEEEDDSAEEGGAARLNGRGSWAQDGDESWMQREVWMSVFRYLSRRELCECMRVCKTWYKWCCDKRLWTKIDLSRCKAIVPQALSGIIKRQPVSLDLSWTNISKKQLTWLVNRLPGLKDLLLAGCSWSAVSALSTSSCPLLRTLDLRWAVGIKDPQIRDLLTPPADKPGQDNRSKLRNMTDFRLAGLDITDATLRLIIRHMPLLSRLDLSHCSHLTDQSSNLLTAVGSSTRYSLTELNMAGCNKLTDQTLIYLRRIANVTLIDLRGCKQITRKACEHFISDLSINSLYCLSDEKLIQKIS
Nature of the assay: Binding affinity to recombinant 6xHis-tagged JHDM1A (unknown origin) expressed in Escherichia coli BL21 by fluorescence polarization assay in presence of Fe2+ and sodium ascorbate. On the technique in general: Polarisation of emitted light reports the rotation of a fluorescent probe.

The target in assay [2] is T1, Lysine-specific demethylase 2A. Nature of the assay: Binding affinity to recombinant 6xHis-tagged JHDM1A (unknown origin) expressed in Escherichia coli BL21 by fluorescence polarization assay in presence of Co2+.
Assay [3] has the same target. Nature of the assay: Inhibition of recombinant 6xHis-tagged JHDM1A (unknown origin) expressed in Escherichia coli BL21 using SAPATGGVK(Me2)KPHRYRPGTVAL as substrate incubated for 15 mins prior to substrate addition measured after 50 mins by rapid fire mass spectrophotometric analysis.
Assay [4] concerns the target T2, Lysine-specific demethylase 4A (Homo sapiens, UniProt O75164).
T2 sequence (O75164 whole entry): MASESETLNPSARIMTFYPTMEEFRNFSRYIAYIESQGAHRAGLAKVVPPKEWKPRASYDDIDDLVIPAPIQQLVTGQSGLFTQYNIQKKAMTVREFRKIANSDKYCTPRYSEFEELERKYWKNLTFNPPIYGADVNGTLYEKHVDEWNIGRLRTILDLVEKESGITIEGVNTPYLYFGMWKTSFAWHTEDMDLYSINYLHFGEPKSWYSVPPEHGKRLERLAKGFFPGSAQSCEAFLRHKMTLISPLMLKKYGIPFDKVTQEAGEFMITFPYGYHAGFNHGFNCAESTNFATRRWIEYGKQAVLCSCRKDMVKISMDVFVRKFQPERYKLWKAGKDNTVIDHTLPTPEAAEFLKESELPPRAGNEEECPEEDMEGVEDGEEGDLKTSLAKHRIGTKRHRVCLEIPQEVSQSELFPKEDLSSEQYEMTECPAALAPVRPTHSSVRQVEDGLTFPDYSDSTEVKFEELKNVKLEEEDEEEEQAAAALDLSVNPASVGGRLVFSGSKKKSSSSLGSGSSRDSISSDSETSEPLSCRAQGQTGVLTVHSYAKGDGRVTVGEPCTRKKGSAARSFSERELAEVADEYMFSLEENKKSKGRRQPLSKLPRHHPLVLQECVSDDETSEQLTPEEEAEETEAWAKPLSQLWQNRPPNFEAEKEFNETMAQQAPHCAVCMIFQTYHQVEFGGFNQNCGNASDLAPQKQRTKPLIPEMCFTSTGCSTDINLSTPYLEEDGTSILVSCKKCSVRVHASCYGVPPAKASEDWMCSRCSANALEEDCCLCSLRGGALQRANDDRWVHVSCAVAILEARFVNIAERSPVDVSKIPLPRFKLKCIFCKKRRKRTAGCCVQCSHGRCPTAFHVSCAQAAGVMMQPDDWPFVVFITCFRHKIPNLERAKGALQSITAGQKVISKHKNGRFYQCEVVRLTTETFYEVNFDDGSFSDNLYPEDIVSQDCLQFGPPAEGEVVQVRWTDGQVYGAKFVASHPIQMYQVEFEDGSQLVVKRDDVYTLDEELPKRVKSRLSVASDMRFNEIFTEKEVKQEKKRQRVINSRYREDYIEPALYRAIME
Nature of the assay: Inhibition of JMJD2A (unknown origin).

For assay [5], the target named is T3, Lysine-specific demethylase 6B (Homo sapiens, UniProt O15054). Nature of the assay: Inhibition of recombinant 6xHis-tagged JMJD3 (unknown origin) expressed in Escherichia coli BL21.
T3 sequence (O15054 whole entry): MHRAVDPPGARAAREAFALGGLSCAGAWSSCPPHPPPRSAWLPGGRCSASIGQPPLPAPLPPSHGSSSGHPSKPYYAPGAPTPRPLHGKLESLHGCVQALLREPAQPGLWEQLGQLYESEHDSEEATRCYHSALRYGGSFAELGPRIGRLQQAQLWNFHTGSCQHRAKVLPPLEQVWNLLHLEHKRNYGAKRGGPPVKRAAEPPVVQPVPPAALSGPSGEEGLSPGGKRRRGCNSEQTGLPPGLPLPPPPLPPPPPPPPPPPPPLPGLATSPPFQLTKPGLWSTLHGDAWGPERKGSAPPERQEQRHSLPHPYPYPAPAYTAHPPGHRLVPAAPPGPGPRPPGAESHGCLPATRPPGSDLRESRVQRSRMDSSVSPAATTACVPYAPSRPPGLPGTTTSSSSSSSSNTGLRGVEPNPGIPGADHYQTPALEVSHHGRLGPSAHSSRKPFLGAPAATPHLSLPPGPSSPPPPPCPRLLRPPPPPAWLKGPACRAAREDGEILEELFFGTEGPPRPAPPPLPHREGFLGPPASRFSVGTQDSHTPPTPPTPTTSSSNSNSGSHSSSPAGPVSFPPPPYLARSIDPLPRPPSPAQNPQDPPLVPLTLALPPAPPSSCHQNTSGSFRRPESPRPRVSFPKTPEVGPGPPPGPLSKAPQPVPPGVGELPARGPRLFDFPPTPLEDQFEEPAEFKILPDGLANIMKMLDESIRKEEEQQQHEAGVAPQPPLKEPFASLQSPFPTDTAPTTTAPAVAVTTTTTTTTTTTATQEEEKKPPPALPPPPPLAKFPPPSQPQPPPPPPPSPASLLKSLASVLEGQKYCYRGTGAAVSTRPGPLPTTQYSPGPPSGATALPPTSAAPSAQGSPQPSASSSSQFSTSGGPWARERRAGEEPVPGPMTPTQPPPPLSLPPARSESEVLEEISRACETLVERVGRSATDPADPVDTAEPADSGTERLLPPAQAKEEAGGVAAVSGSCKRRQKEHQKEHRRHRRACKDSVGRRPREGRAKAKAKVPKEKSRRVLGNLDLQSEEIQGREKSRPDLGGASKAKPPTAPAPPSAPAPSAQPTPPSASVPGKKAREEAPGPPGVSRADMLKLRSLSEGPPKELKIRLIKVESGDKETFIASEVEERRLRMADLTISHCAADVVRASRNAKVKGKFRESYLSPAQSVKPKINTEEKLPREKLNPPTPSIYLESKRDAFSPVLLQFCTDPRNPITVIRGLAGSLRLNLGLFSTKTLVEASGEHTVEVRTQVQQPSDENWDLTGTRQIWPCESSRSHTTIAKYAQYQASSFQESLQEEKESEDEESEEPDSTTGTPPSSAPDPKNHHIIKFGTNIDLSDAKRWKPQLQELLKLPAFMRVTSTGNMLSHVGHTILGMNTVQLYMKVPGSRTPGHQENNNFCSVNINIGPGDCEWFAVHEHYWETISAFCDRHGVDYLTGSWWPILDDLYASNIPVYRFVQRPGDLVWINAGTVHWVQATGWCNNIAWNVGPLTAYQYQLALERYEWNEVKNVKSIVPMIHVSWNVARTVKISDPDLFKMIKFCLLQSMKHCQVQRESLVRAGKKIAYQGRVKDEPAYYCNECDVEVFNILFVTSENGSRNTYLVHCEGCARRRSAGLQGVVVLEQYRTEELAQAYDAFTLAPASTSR
Assay [6] deals with T1, Lysine-specific demethylase 2A. Nature of the assay: Binding affinity to recombinant 6xHis-tagged JHDM1A (unknown origin) expressed in Escherichia coli BL21 by fluorescence polarization assay.
For assay [7], the target named is T3, Lysine-specific demethylase 6B. Nature of the assay: Binding affinity to recombinant 6xHis-tagged JMJD3 (unknown origin) expressed in Escherichia coli BL21 up to 10 uM by fluorescence polarization assay.
In assay [8] the target is T1, Lysine-specific demethylase 2A. Nature of the assay: Binding affinity to recombinant 6xHis-tagged JHDM1A (unknown origin) expressed in Escherichia coli BL21 by fluorescence polarization assay in presence of Ni2+.
For assay [9], the target named is T4, Lysine-specific demethylase 4A (Homo sapiens) (UniProt O75164).
T4 sequence (whole entry): T2 sequence (O75164 whole entry)
Nature of the assay: Binding affinity to JMJD2A (unknown origin) up to 10 uM by fluorescence polarization assay.

As to `NCc1ccc(CN(CCCCN(O)C(=O)/C=C/C(=O)O)C(=S)Nc2ccc(-c3c4ccc(=O)cc-4oc4cc(O)ccc34)c(C(=O)O)c2)cc1`, the dissociation constant (Kd) in assay [1] turned out to be 8.6 nM; in assay [2], 22 nM; in [6], 19 nM; in [8] it was 9.3 nM. Moreover, the half-maximal inhibitory concentration (IC50) turned out to be 900 nM in assay [3], 23500 nM in [4] and 9500 nM in assay [5]. For the same compound, the outcome in assay [7] and in assay [9] was Active.
With `O=C(O)/C=C/C(=O)N(O)CCCCNCc1ccc(COC(=O)Nc2cccc3ccccc23)cc1`, the IC50 in [4] stood at 3300 nM; in [5] it was 3100 nM.
Turning to `NCc1ccc(CNCCCCN(O)C(=O)/C=C/C(=O)O)cc1`, the figures for the half-maximal inhibitory concentration (IC50) in assay [3], in assay [4] and in assay [5] were 420 nM, 2400 nM and 7300 nM, respectively.

The Kd is the equilibrium constant for the complex coming apart. The IC50 is the point on the concentration scale where inhibition reaches its midpoint.
